Results: ChEMBL document CHEMBL5154681, “Small Amphiphilic Peptides: Activity Against a Broad Range of Drug-Resistant Bacteria and Structural Insight into Membranolytic Properties” (J Med Chem, 2022)
Values after ≈ are worked out from the molar mass of the structure shown. Square brackets hold non-standard residues; d marks the D form. Peptide text beside a SMILES is read from it. Dip = N[C@H](C(=O)O)C(c1ccccc1)c1ccccc1; 2Nal = N[C@@H](Cc1ccc2ccccc2c1)C(=O)O

Assays:
[1] = Hemolytic activity in human RBC assessed as hemolysis incubated for 2 hrs by spectrophotometer analysis; format: toxicity, cell-based, Erythrocyte; conditions: human red blood cells (erythrocytes)
Staphylococcus aureus [2] = test: Antibacterial activity against Staphylococcus aureus ATCC 29213 incubated for 24 hrs by microtiter plate method; format: functional; conditions: Staphylococcus aureus, ATCC 29213, read-out: MIC
Escherichia coli = test: Antibacterial activity against Escherichia coli ATCC 25922 incubated for 24 hrs by microtiter plate method; format: functional; conditions: Escherichia coli, ATCC 25922, 24 h, read-out: MIC
Pseudomonas aeruginosa = test: Antibacterial activity against Pseudomonas aeruginosa ATCC 27883 incubated for 24 hrs by microtiter plate method; format: functional; conditions: Pseudomonas aeruginosa, ATCC 27883, 24 h, read-out: MIC
Staphylococcus aureus [3] = test: Antibacterial activity against methicillin resistant Staphylococcus aureus ATCC BAA-1556 incubated for 24 hrs by microtiter plate method; format: functional; conditions: Staphylococcus aureus, ATCC BAA-1556, 24 h, read-out: MIC

N=C(N)NCCC[C@@H]1NC(=O)[C@H](CCCNC(=N)N)NC(=O)[C@H](CCCNC(=N)N)NC(=O)[C@H](Cc2ccc3ccccc3c2)NC(=O)[C@H](Cc2ccc3ccccc3c2)NC(=O)[C@H](CCCNC(=N)N)NC1=O (cyclo([2Nal][2Nal]RRRR))
HC50 at 2 h [1]: 125 µg/mL | MIC (Staphylococcus aureus [2]): 6.2 µg/mL (≈ 6.08 µM) | MIC (Escherichia coli): 50 µg/mL (≈ 49.1 µM) | MIC (Pseudomonas aeruginosa): 50 µg/mL (≈ 49.1 µM) | MIC (Staphylococcus aureus [3]): 6.2 µg/mL (≈ 6.08 µM)

N=C(N)NCCC[C@H](NC(=O)[C@H](CCCNC(=N)N)NC(=O)[C@@H](N)CCCNC(=N)N)C(=O)N[C@@H](CCCNC(=N)N)C(=O)N[C@H](C(=O)N[C@H](C(=O)N[C@H](C(=O)N[C@H](C(=O)O)C(c1ccccc1)c1ccccc1)C(c1ccccc1)c1ccccc1)C(c1ccccc1)c1ccccc1)C(c1ccccc1)c1ccccc1 (H-RRRR[Dip][Dip][Dip][Dip]-OH)
HC50 at 2 h [1]: 75 µg/mL | MIC (Staphylococcus aureus [2]): 6.2 µg/mL (≈ 4.04 µM) | MIC (Escherichia coli): 50 µg/mL (≈ 32.6 µM) | MIC (Pseudomonas aeruginosa): 50 µg/mL (≈ 32.6 µM) | MIC (Staphylococcus aureus [3]): 12.5 µg/mL (≈ 8.14 µM)

NCCCC[C@@H]1NC(=O)[C@H](CCCCN)NC(=O)[C@H](CCCCN)NC(=O)[C@H](C(c2ccccc2)c2ccccc2)NC(=O)[C@H](C(c2ccccc2)c2ccccc2)NC(=O)[C@H](C(c2ccccc2)c2ccccc2)NC(=O)[C@H](CCCCN)NC1=O (cyclo([Dip][Dip][Dip]KKKK))
HC50 at 2 h [1]: 165 µg/mL | MIC (Staphylococcus aureus [2]): 12.5 µg/mL (≈ 10.6 µM) | MIC (Escherichia coli): > 100 µg/mL | MIC (Pseudomonas aeruginosa): > 100 µg/mL | MIC (Staphylococcus aureus [3]): 12.5 µg/mL (≈ 10.6 µM)

N=C(N)NCCC[C@H](NC(=O)[C@H](CCCNC(=N)N)NC(=O)[C@H](Cc1ccc2ccccc2c1)NC(=O)[C@H](Cc1ccc2ccccc2c1)NC(=O)[C@H](CCCNC(=N)N)NC(=O)[C@@H](N)CCCNC(=N)N)C(=O)N[C@@H](Cc1ccc2ccccc2c1)C(=O)O (H-RR[2Nal][2Nal]RR[2Nal]-OH)
HC50 at 2 h [1]: 195 µg/mL | MIC (Staphylococcus aureus [2]): 12.5 µg/mL (≈ 10.1 µM) | MIC (Escherichia coli): 25 µg/mL (≈ 20.3 µM) | MIC (Pseudomonas aeruginosa): 25 µg/mL (≈ 20.3 µM) | MIC (Staphylococcus aureus [3]): 25 µg/mL (≈ 20.3 µM)

NCCCC[C@@H]1NC(=O)[C@H](CCCCN)NC(=O)[C@H](CCCCN)NC(=O)[C@H](C(c2ccccc2)c2ccccc2)NC(=O)[C@H](C(c2ccccc2)c2ccccc2)NC(=O)[C@H](C(c2ccccc2)c2ccccc2)NC(=O)[C@H](CCCCN)NC(=O)[C@H](CCCCN)NC1=O (cyclo([Dip][Dip][Dip]KKKKK))
HC50 at 2 h [1]: 180 µg/mL | MIC (Staphylococcus aureus [2]): 6.2 µg/mL (≈ 4.73 µM) | MIC (Escherichia coli): 50 µg/mL (≈ 38.1 µM) | MIC (Pseudomonas aeruginosa): > 100 µg/mL | MIC (Staphylococcus aureus [3]): 12.5 µg/mL (≈ 9.54 µM)

N=C(N)NCCC[C@@H]1NC(=O)[C@H](CCCNC(=N)N)NC(=O)[C@H](CCCNC(=N)N)NC(=O)[C@H](C(c2ccccc2)c2ccccc2)NC(=O)[C@H](C(c2ccccc2)c2ccccc2)NC(=O)[C@H](C(c2ccccc2)c2ccccc2)NC(=O)[C@H](CCCNC(=N)N)NC(=O)[C@H](CCCNC(=N)N)NC1=O (cyclo([Dip][Dip][Dip]RRRRR))
HC50 at 2 h [1]: 100 µg/mL | MIC (Staphylococcus aureus [2]): 6.2 µg/mL (≈ 4.27 µM) | MIC (Escherichia coli): 25 µg/mL (≈ 17.2 µM) | MIC (Pseudomonas aeruginosa): 25 µg/mL (≈ 17.2 µM) | MIC (Staphylococcus aureus [3]): 6.2 µg/mL (≈ 4.27 µM)

N=C(N)NCCC[C@@H]1NC(=O)[C@H](CCCNC(=N)N)NC(=O)[C@H](CCCNC(=N)N)NC(=O)[C@H](C(c2ccccc2)c2ccccc2)NC(=O)[C@H](C(c2ccccc2)c2ccccc2)NC(=O)[C@H](CCCNC(=N)N)NC1=O (cyclo([Dip][Dip]RRRR))
HC50 at 2 h [1]: 110 µg/mL | MIC (Staphylococcus aureus [2]): 6.2 µg/mL (≈ 5.79 µM) | MIC (Escherichia coli): 50 µg/mL (≈ 46.7 µM) | MIC (Pseudomonas aeruginosa): 25 µg/mL (≈ 23.3 µM) | MIC (Staphylococcus aureus [3]): 6.2 µg/mL (≈ 5.79 µM)

N=C(N)NCCC[C@@H]1NC(=O)[C@H](CCCNC(=N)N)NC(=O)[C@H](Cc2ccc3ccccc3c2)NC(=O)[C@H](Cc2ccc3ccccc3c2)NC(=O)[C@H](CCCNC(=N)N)NC(=O)[C@H](CCCNC(=N)N)NC(=O)[C@H](Cc2ccc3ccccc3c2)NC1=O (stereo in doubt; 18C)
HC50 at 2 h [1]: 105 µg/mL | MIC (Staphylococcus aureus [2]): 6.2 µg/mL (≈ 5.1 µM) | MIC (Escherichia coli): 25 µg/mL (≈ 20.6 µM) | MIC (Pseudomonas aeruginosa): > 100 µg/mL | MIC (Staphylococcus aureus [3]): 6.2 µg/mL (≈ 5.1 µM)

NCCCC[C@H](NC(=O)[C@H](CCCCN)NC(=O)[C@@H](N)CCCCN)C(=O)N[C@@H](CCCCN)C(=O)N[C@H](C(=O)N[C@H](C(=O)N[C@H](C(=O)O)C(c1ccccc1)c1ccccc1)C(c1ccccc1)c1ccccc1)C(c1ccccc1)c1ccccc1 (H-KKKK[Dip][Dip][Dip]-OH)
HC50 at 2 h [1]: 255 µg/mL | MIC (Staphylococcus aureus [2]): 25 µg/mL (≈ 20.8 µM) | MIC (Escherichia coli): > 100 µg/mL | MIC (Pseudomonas aeruginosa): > 100 µg/mL | MIC (Staphylococcus aureus [3]): 25 µg/mL (≈ 20.8 µM)

N=C(N)NCCC[C@H](NC(=O)[C@H](CCCNC(=N)N)NC(=O)[C@@H](N)CCCNC(=N)N)C(=O)N[C@@H](Cc1ccc2ccccc2c1)C(=O)N[C@@H](Cc1ccc2ccccc2c1)C(=O)N[C@@H](Cc1ccc2ccccc2c1)C(=O)O (H-RRR[2Nal][2Nal][2Nal]-OH)
HC50 at 2 h [1]: 105 µg/mL | MIC (Staphylococcus aureus [2]): 6.2 µg/mL (≈ 5.75 µM) | MIC (Escherichia coli): 12.5 µg/mL (≈ 11.6 µM) | MIC (Pseudomonas aeruginosa): 25 µg/mL (≈ 23.2 µM) | MIC (Staphylococcus aureus [3]): 6.2 µg/mL (≈ 5.75 µM)

N=C(N)NCCC[C@H](NC(=O)[C@H](CCCNC(=N)N)NC(=O)[C@H](CCCNC(=N)N)NC(=O)[C@@H](N)CCCNC(=N)N)C(=O)N[C@@H](Cc1ccc2ccccc2c1)C(=O)N[C@@H](Cc1ccc2ccccc2c1)C(=O)N[C@@H](Cc1ccc2ccccc2c1)C(=O)N[C@@H](Cc1ccc2ccccc2c1)C(=O)O (H-RRRR[2Nal][2Nal][2Nal][2Nal]-OH)
HC50 at 2 h [1]: 70 µg/mL | MIC (Staphylococcus aureus [2]): 12.5 µg/mL (≈ 8.73 µM) | MIC (Escherichia coli): 50 µg/mL (≈ 34.9 µM) | MIC (Pseudomonas aeruginosa): > 100 µg/mL | MIC (Staphylococcus aureus [3]): 12.5 µg/mL (≈ 8.73 µM)

N=C(N)NCCC[C@H](NC(=O)[C@H](CCCNC(=N)N)NC(=O)[C@@H](N)CCCNC(=N)N)C(=O)N[C@@H](CCCNC(=N)N)C(=O)N[C@H](C(=O)N[C@H](C(=O)O)C(c1ccccc1)c1ccccc1)C(c1ccccc1)c1ccccc1 (H-RRRR[Dip][Dip]-OH)
HC50 at 2 h [1]: 185 µg/mL | MIC (Staphylococcus aureus [2]): 12.5 µg/mL (≈ 11.5 µM) | MIC (Escherichia coli): 50 µg/mL (≈ 45.9 µM) | MIC (Pseudomonas aeruginosa): 50 µg/mL (≈ 45.9 µM) | MIC (Staphylococcus aureus [3]): 12.5 µg/mL (≈ 11.5 µM)

N=C(N)NCCC[C@H](NC(=O)[C@H](CCCNC(=N)N)NC(=O)[C@H](CCCNC(=N)N)NC(=O)[C@H](CCCNC(=N)N)NC(=O)[C@@H](N)CCCNC(=N)N)C(=O)N[C@@H](Cc1ccc2ccccc2c1)C(=O)N[C@@H](Cc1ccc2ccccc2c1)C(=O)N[C@@H](Cc1ccc2ccccc2c1)C(=O)O (H-RRRRR[2Nal][2Nal][2Nal]-OH)
HC50 at 2 h [1]: 190 µg/mL | MIC (Staphylococcus aureus [2]): 6.2 µg/mL (≈ 4.46 µM) | MIC (Escherichia coli): 25 µg/mL (≈ 18 µM) | MIC (Pseudomonas aeruginosa): 25 µg/mL (≈ 18 µM) | MIC (Staphylococcus aureus [3]): 6.2 µg/mL (≈ 4.46 µM)

N=C(N)NCCC[C@@H]1NC(=O)[C@H](CCCNC(=N)N)NC(=O)[C@H](CCCNC(=N)N)NC(=O)[C@H](Cc2ccc3ccccc3c2)NC(=O)[C@H](Cc2ccc3ccccc3c2)NC(=O)[C@H](Cc2ccc3ccccc3c2)NC(=O)[C@H](CCCNC(=N)N)NC(=O)[C@H](CCCNC(=N)N)NC1=O (cyclo([2Nal][2Nal][2Nal]RRRRR))
HC50 at 2 h [1]: 90 µg/mL | MIC (Staphylococcus aureus [2]): 3.1 µg/mL (≈ 2.26 µM) | MIC (Escherichia coli): 50 µg/mL (≈ 36.4 µM) | MIC (Pseudomonas aeruginosa): 25 µg/mL (≈ 18.2 µM) | MIC (Staphylococcus aureus [3]): 6.2 µg/mL (≈ 4.52 µM)

N=C(N)NCCC[C@H](NC(=O)[C@H](CCCNC(=N)N)NC(=O)[C@@H](NC(=O)[C@@H](NC(=O)[C@H](CCCNC(=N)N)NC(=O)[C@@H](N)CCCNC(=N)N)C(c1ccccc1)c1ccccc1)C(c1ccccc1)c1ccccc1)C(=O)N[C@H](C(=O)O)C(c1ccccc1)c1ccccc1 (H-RR[Dip][Dip]RR[Dip]-OH)
HC50 at 2 h [1]: 240 µg/mL | MIC (Staphylococcus aureus [2]): 12.5 µg/mL (≈ 9.52 µM) | MIC (Escherichia coli): 25 µg/mL (≈ 19 µM) | MIC (Pseudomonas aeruginosa): 25 µg/mL (≈ 19 µM) | MIC (Staphylococcus aureus [3]): 12.5 µg/mL (≈ 9.52 µM)
